# “And” between values parts separate entries of the source, which are not always exact repeats. Equal entries are not always repeated.
# Tests used:
# soluble CD40 [1] = target: soluble CD40 (Homo sapiens, UniProt P25942); experiment: ELISA-type binding assays
# [2] = test system: CD40-expressing target cells; experiment: Antibody dependent cellular cytotoxicity (ADCC); type: cell-based
# Source text: (§1) The antibody is able to kill CD40-expressing target cells by antibody dependent cellular cytotoxicity (ADCC). The binding affinity of HCD122 for human CD40 is 5×10^−10 M, as determined by the Biacore™ assay.
# cell-surface CD40 = cell-surface CD40 (Homo sapiens, UniProt P25942); experiment: Flow cytometric assays of CD40-ligand binding
# SU-DHL-4 cells [3] = experiment: CD40L-induced resistance to CHOP cytotoxicity (CellTiter-Glo); type: cell-based, human; details: antibody 10 μg/ml; CD40L 1 μg/ml; 3 days; percentage of viable cells
# Procedure: Experiments were performed to elucidate the mechanism by which the H-CHOP combination provides unexpectedly potent anti-tumour efficacy in vivo. SU-DHL-4 cells were cultured in the presence of (i) negative control huIgG1 antibody, (ii) HCD122, (iii) huIgG1 and CD40L or (iv) HCD122 and CD40L. SU-DHL-4 cells were seeded at 30,000 cells/well. The antibodies were all used at 10 μg/ml. Recombinant human soluble CD40L was used at 1 μg/ml with ligand enhancer at 2 μg/ml. All cells were treated with cytoxan at 1 mg/ml, prednisone at 15 μg/ml, doxrubicin at 2.5 ng/ml and vincristin at 1 pg/ml. Cells were cultured for 3 days and the percentage of viable cells determined using CellTiter-Glo.
# [4] = test system: RL diffuse large B-cell lymphoma (DLBCL) xenograft; experiment: Anti-tumor activity in RL DLBCL xenograft model; type: in vivo; details: alone or with CHOP regimen; for Tumor Growth Inhibition (TGI) on Day 25: vs control huIgG
# Procedure: The anti-tumor activity of HCD122 was tested in RL DLBCL xenograft models in combination with CHOP in CB17/SCID mice. 10×10^6 RL cells were subcutaneously implanted with equal volume of Matrigel™ in the animals' midline thoracic vertebral region in a 200 μl volume. The antibody administration was initiated when the mean tumor volume was 150-200 mm^3 in size (noted as day 1 in FIG. 1). […] All monoclonal antibodies were administered on a once-a-week schedule, and the length of treatment was 4 weeks. The CHOP regimen was administered at these doses and schedule: prednisone, 0.2 mg/kg p.o. days 1-5; cytoxan, 40 mg/kg, i.v., day 1; doxorubicin 3.3 mg/kg, i.v., day 1; vincristine, 0.5 mg/kg, i.v., day 1. Group size was n=12. For tumor volume measurements, length then width were measured with a digital caliper. The measurements were recorded twice a week once the tumors became visible. Tumor volumes and doubling times were calculated based on the formula, Volume=L×W^2/2. The animals' weights were recorded and evaluated as a per group average.
# [5] = test system: B cells from normal human subjects; experiment: In vitro proliferation of B cells from normal human subjects; type: cell-based
# Procedure: B cells (4×10^4 per well) are cultured in 200 μl IMDM supplemented with 10% fetal calf serum in flat bottom 96-well microtiter plates. B cells are stimulated by addition of immobilized anti-(IgM) antibodies (Immunobeads; 5 μg/ml; BioRad, Richmond, Calif.). Where desired, 100 U/ml recombinant IL-2 is added. Varying concentrations of test monoclonal antibodies (mAbs) are added at the onset of the microcultures and proliferation is assessed at day 3 by measurement of the incorporation of (3H)-thymidine after 18 hour pulsing.
# as §1
# human CD40 [6] = target: T1, human CD40 (Homo sapiens, UniProt P25942); experiment: Biacore binding affinity assay
# Source text: As used herein “anti-CD40 antibody” encompasses any antibody that specifically recognizes the CD40 antigen. […] Biacore analysis is known in the art and details are provided in the “BIAapplications handbook”.
# as §1
# Target sequence in this assay (P25942 21-277): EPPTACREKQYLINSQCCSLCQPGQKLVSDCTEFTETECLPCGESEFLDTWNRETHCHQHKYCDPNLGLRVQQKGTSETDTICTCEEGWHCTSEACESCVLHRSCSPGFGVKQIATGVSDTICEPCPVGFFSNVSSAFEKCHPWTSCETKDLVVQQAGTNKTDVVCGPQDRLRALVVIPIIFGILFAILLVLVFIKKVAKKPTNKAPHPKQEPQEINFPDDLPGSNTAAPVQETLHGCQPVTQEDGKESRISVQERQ
# SU-DHL-4 cells [7] = experiment: CD40L-induced NF-kB activation, p65 phosphorylation Western blot, SU-DHL-4 cells; type: cell-based, human
# Procedure: (§2) RL and SU-DHL-4 cells were stimulated with CD40L for 0, 10, 30, and 90 minutes and Western blots were performed (FIG. 3). […] The phosphorylation persisted in these cell lines for at least 90 minutes. […] Down-regulating NF-kB activation in a cell may sensitize the cell to CHOP cytotoxicity (Chuang et al. (2002) Biochemical Pharmacology 63:1709-1716; Cheng et al. (2000) Oncogene 19:4936-4940).
# RL cells = experiment: CD40L-induced NF-kB activation, p65 phosphorylation Western blot, RL cells; type: cell-based, human
# Procedure: as §2
# SU-DHL-4 cell line = experiment: CD40L-induced expression of cell-surface adhesion molecules, SU-DHL-4 cells; type: cell-based, human
# Procedure: (§3) To further elucidate the mechanism by which the H-CHOP combination results in unexpectedly potent anti-tumour efficacy in vivo, further experiments were performed. The ability of B-cells cells to aggregate and interact with their microenvironment may affect the efficacy of therapeutics. The effects of HCD122 on the expression of adhesion molecules in the RL and SU-DHL-4 cell lines was therefore examined.
# SU-DHL-4 cells [8] = experiment: CD40L-induced aggregation of SU-DHL-4 cells by microscopy; type: cell-based, human
# RL cell line = experiment: CD40L-induced expression of cell-surface adhesion molecules, RL cells; type: cell-based, human
# Procedure: as §3
# human CD40 [9] = target: T1, human CD40; experiment: Biacore
# soluble CD40 [10] = target: soluble CD40 (UniProt P25942 21-193, limits assumed); experiment: ELISA-type assays
# [11] = CD40L in the presence of HCD122
# Chain of cell-surface CD40 (P25942 21-277): as above
# Chain of soluble CD40 (Homo sapiens, UniProt P25942) (P25942 21-193 limits assumed): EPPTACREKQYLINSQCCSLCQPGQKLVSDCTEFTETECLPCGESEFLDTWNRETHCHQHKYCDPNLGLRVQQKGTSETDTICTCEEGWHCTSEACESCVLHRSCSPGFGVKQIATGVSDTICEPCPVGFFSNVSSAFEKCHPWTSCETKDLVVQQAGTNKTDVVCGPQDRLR
# Chain of soluble CD40 (UniProt P25942 21-193, limits assumed) (P25942 21-193 limits assumed): as above
molecule,measurement,setting,value
"HCD122: human IgG1 anti-CD40 monoclonal antibody, produced by hybridoma deposited with ATCC as PTA-5543",Binding to soluble CD40,soluble CD40 [1],binds soluble CD40
same,Killing of CD40-expressing target cells by ADCC,[2],able to kill
same,Binding of CD40-ligand to cell-surface CD40,cell-surface CD40,prevents the binding
same,Displacement of pre-bound CD40-ligand,cell-surface CD40,displaces the pre-bound CD40-ligand
same,CD40L-induced resistance to CHOP cytotoxicity,SU-DHL-4 cells [3],resistance can be overcome
same,Tumor Growth Inhibition (TGI) on Day 25,[4]; antibody 0.1 mg/kg i.p. once a week for 4 weeks,28.65%
same,Tumor-growth delay (time to reach tumor size of 500 mm^3),[4]; antibody 0.1 mg/kg i.p. once a week,1.5 days
same,Tumor Growth Inhibition (TGI) on Day 25,[4]; antibody 1 mg/kg i.p. once a week for 4 weeks,71% and 71.15%
same,Tumor-growth delay (time to reach tumor size of 500 mm^3),[4]; antibody 1 mg/kg i.p. once a week,6 days
same,Effects on proliferation of B cells from normal human subjects,[5],acts as antagonist anti-CD40 antibody
same,Induction of proliferation of human lymphocytes from normal subjects,[5],does not induce strong proliferation
same,Kd,human CD40 [6],0.5 nM
same,NF-kB activation induced by CD40L,SU-DHL-4 cells [7],completely blocked
same,Phosphorylation of p65 on CD40L stimulation,SU-DHL-4 cells [7]; [11],greatly inhibited
same,NF-kB activation induced by CD40L,RL cells,completely blocked
same,Phosphorylation of p65 on CD40L stimulation,RL cells; [11],greatly inhibited
same,"CD40L-induced expression of CD54, CD86 and CD95",SU-DHL-4 cell line,inhibit
same,CD40L-induced aggregation of SU-DHL-4 cells,SU-DHL-4 cells [8],inhibited
same,"CD40L-induced expression of CD54, CD86 and CD95",RL cell line,inhibit
"monoclonal antibody HCD122 (antibody, human IgG1, kappa, V domains shown, Fully human IgG1 kappa antibody from XenoMouse; hybridoma ATCC PTA-5543; also called CHIR-12.12; anti-CD40 antibody) VH: QVQLVESGGGVVQPGRSLRLSCAASGFTFSSYGMHWVRQAPGKGLEWVAVISYEESNRYHADSVKGRFTISRDNSKITLYLQMNSLRTEDTAVYYCARDGGIAAPGPDYWGQGTLVTVSS VL: DIVMTQSPLSLTVTPGEPASISCRSSQSLLYSNGYNYLDWYLQKPGQSPQVLISLGSNRASGVPDRFSGSGSGTDFTLKISRVEAEDVGVYYCMQARQTPFTFGPGTKVDIRR",Kd,human CD40 [9],0.5 nM
same,binding result,soluble CD40 [10],binds
